Molecular target: P. falciparum apicoplast DNA polymerase (Pf-apPOL) (Plasmodium falciparum, UniProt Q8ILY1)
Test: Fluorescence-based high-throughput DNA polymerase assay (molecular beacon), primary screen and dose-response;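 for % inhibition Apol 40': compound concentration given in µM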
Type: biochemical
Settings: for DNA Pol: 90 min, 10 µM
Summary of the method: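 Single-point screening used 10 µM compound with 20 nM polymerase, 20 nM hairpin substrate and 6 µM dNTPs for 90 min at 25 °C. Confirmatory titrations (2.5–80 µM) followed fluorescence at three times, and IC50 was derived from a fit including a cooperativity term n.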

[1] = 'DNA Pol' of the 186 hits list (primary screen value)

Sequence of P. falciparum apicoplast DNA polymerase (Pf-apPOL) (Q8ILY1 entry or part of it): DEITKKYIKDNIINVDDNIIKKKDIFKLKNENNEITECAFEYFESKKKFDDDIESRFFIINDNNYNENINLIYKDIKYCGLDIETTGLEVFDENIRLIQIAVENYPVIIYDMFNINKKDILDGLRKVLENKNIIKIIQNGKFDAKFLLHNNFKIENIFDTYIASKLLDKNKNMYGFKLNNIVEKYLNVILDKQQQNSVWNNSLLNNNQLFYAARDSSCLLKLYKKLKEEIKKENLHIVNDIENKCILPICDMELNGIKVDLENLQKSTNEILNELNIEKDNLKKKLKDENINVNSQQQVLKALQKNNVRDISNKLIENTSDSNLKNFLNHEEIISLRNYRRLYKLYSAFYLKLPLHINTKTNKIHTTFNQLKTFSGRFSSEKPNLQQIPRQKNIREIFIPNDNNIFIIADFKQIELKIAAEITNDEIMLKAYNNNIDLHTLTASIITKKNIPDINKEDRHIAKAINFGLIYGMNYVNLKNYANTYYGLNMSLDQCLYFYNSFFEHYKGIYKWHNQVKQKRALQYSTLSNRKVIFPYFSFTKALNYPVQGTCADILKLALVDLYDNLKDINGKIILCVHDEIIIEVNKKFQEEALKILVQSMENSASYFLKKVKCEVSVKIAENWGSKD

Cc1cccc2c(C(=O)NC(C)C)cc(N(C)C)nc12 [Molecule 47, CC(NC(=O)c1cc(nc2c1cccc2C)N(C)C)C]
DNA Pol [1]: 22 | DNA Pol (DNA Pol (primary screen value)): 22 | % inhibition Apo pol 10' (DRC-1, concentration 2.5): 6.184% | % inhibition Apo pol 10' (DRC-1, concentration 5): 4.255% | % inhibition Apo pol 10' (DRC-1, concentration 10): 30.9701% | % inhibition Apo pol 10' (DRC-1, concentration 20): 57.6029% | % inhibition Apo pol 10' (DRC-1, concentration 40): 72.1055% | % inhibition Apo pol 10' (DRC-1, concentration 80): 75.9231% | % inhibition Apol 90' (DRC-1, concentration 2.5): 2.22% | % inhibition Apol 90' (DRC-1, concentration 5): 0.7023% | % inhibition Apol 90' (DRC-1, concentration 10): 20.6995% | % inhibition Apol 90' (DRC-1, concentration 20): 44.2849% | % inhibition Apol 90' (DRC-1, concentration 40): 67.2168% | % inhibition Apol 90' (DRC-1, concentration 80): 75.4674% | % inhibition apPOL 180' (DRC-1, concentration 2.5): 2.5191% | % inhibition apPOL 180' (DRC-1, concentration 5): -0.7995% | % inhibition apPOL 180' (DRC-1, concentration 10): 11.775% | % inhibition apPOL 180' (DRC-1, concentration 20): 29.3384% | % inhibition apPOL 180' (DRC-1, concentration 40): 56.4011% | % inhibition apPOL 180' (DRC-1, concentration 80): 69.9021% | % inhibition Apo pol 5' (DRC-2, concentration 2.5): 7% | % inhibition Apo pol 5' (DRC-2, concentration 5): 13% | % inhibition Apo pol 5' (DRC-2, concentration 10): 21% | % inhibition Apo pol 5' (DRC-2, concentration 20): 37% | % inhibition Apo pol 5' (DRC-2, concentration 40): 47% | % inhibition Apo pol 5' (DRC-2, concentration 80): 35% | % inhibition Apol 40' (DRC-2, concentration 2.5): 6.48% | % inhibition Apol 40' (DRC-2, concentration 5): 14% | % inhibition Apol 40' (DRC-2, concentration 10): 25% | % inhibition Apol 40' (DRC-2, concentration 20): 43% | % inhibition Apol 40' (DRC-2, concentration 40): 62% | % inhibition Apol 40' (DRC-2, concentration 80): 58% | % inhibition ApPOL 90' (DRC-2, concentration 2.5): 6% | % inhibition ApPOL 90' (DRC-2, concentration 5): 11% | % inhibition ApPOL 90' (DRC-2, concentration 10): 21% | % inhibition ApPOL 90' (DRC-2, concentration 20): 41% | % inhibition ApPOL 90' (DRC-2, concentration 40): 64% | % inhibition ApPOL 90' (DRC-2, concentration 80): 63% | % inhibition apPOL 180' (DRC-2, concentration 2.5): 1.25% | % inhibition apPOL 180' (DRC-2, concentration 5): 6.35% | % inhibition apPOL 180' (DRC-2, concentration 10): 14% | % inhibition apPOL 180' (DRC-2, concentration 20): 31% | % inhibition apPOL 180' (DRC-2, concentration 40): 60% | % inhibition apPOL 180' (DRC-2, concentration 80): 66%

O=c1[nH]c2ccc([N+](=O)[O-])cc2c(-c2ccccc2)c1Sc1nc2ccccc2o1 [KU0067471]
DNA Pol [1]: 28 | DNA Pol (DNA Pol (primary screen value)): 28 | % inhibition Apo pol 10' (DRC-1, concentration 2.5): 11.1433% | % inhibition Apo pol 10' (DRC-1, concentration 5): 11.3784% | % inhibition Apo pol 10' (DRC-1, concentration 10): 23.2925% | % inhibition Apo pol 10' (DRC-1, concentration 20): 44.3997% | % inhibition Apo pol 10' (DRC-1, concentration 40): 71.988% | % inhibition Apo pol 10' (DRC-1, concentration 80): 85.2168% | % inhibition Apol 90' (DRC-1, concentration 2.5): 8.412% | % inhibition Apol 90' (DRC-1, concentration 5): 5.979% | % inhibition Apol 90' (DRC-1, concentration 10): 13.3902% | % inhibition Apol 90' (DRC-1, concentration 20): 30.6503% | % inhibition Apol 90' (DRC-1, concentration 40): 58.6016% | % inhibition Apol 90' (DRC-1, concentration 80): 77.507% | % inhibition apPOL 180' (DRC-1, concentration 2.5): 7.341% | % inhibition apPOL 180' (DRC-1, concentration 5): 3.743% | % inhibition apPOL 180' (DRC-1, concentration 10): 8.363% | % inhibition apPOL 180' (DRC-1, concentration 20): 19.4729% | % inhibition apPOL 180' (DRC-1, concentration 40): 44.0566% | % inhibition apPOL 180' (DRC-1, concentration 80): 66.9195% | % inhibition Apo pol 5' (DRC-2, concentration 2.5): 9% | % inhibition Apo pol 5' (DRC-2, concentration 5): 12% | % inhibition Apo pol 5' (DRC-2, concentration 10): 26% | % inhibition Apo pol 5' (DRC-2, concentration 20): 42% | % inhibition Apo pol 5' (DRC-2, concentration 40): 59% | % inhibition Apo pol 5' (DRC-2, concentration 80): 60% | % inhibition Apol 40' (DRC-2, concentration 2.5): 7% | % inhibition Apol 40' (DRC-2, concentration 5): 9% | % inhibition Apol 40' (DRC-2, concentration 10): 24% | % inhibition Apol 40' (DRC-2, concentration 20): 43% | % inhibition Apol 40' (DRC-2, concentration 40): 65% | % inhibition Apol 40' (DRC-2, concentration 80): 72% | % inhibition ApPOL 90' (DRC-2, concentration 2.5): 5% | % inhibition ApPOL 90' (DRC-2, concentration 5): 7% | % inhibition ApPOL 90' (DRC-2, concentration 10): 20% | % inhibition ApPOL 90' (DRC-2, concentration 20): 40% | % inhibition ApPOL 90' (DRC-2, concentration 40): 65% | % inhibition ApPOL 90' (DRC-2, concentration 80): 73% | % inhibition apPOL 180' (DRC-2, concentration 2.5): -0.297% | % inhibition apPOL 180' (DRC-2, concentration 5): -0.499% | % inhibition apPOL 180' (DRC-2, concentration 10): 10% | % inhibition apPOL 180' (DRC-2, concentration 20): 26% | % inhibition apPOL 180' (DRC-2, concentration 40): 57% | % inhibition apPOL 180' (DRC-2, concentration 80): 72%

N#CC(=NNc1cc(C(F)(F)F)cc(C(F)(F)F)c1)C(=O)c1ccco1 [KU0264276]
DNA Pol ("DNA Pol" of the 186 hits list (screen value)): 81 | % inhibition Apo pol 10' (DRC-1, concentration 2.5): 7.413% | % inhibition Apo pol 10' (DRC-1, concentration 5): 17.153% | % inhibition Apo pol 10' (DRC-1, concentration 10): 33.1185% | % inhibition Apo pol 10' (DRC-1, concentration 20): 55.9301% | % inhibition Apo pol 10' (DRC-1, concentration 40): 90.9847% | % inhibition Apo pol 10' (DRC-1, concentration 80): 81.2188% | % inhibition Apol 90' (DRC-1, concentration 2.5): 13.8039% | % inhibition Apol 90' (DRC-1, concentration 5): 15.4083% | % inhibition Apol 90' (DRC-1, concentration 10): 41.225% | % inhibition Apol 90' (DRC-1, concentration 20): 52.5694% | % inhibition Apol 90' (DRC-1, concentration 40): 86.2656% | % inhibition Apol 90' (DRC-1, concentration 80): 77.3906% | % inhibition apPOL 180' (DRC-1, concentration 2.5): 13.2581% | % inhibition apPOL 180' (DRC-1, concentration 5): 8.8259% | % inhibition apPOL 180' (DRC-1, concentration 10): 37.6364% | % inhibition apPOL 180' (DRC-1, concentration 20): 41.4937% | % inhibition apPOL 180' (DRC-1, concentration 40): 81.9249% | % inhibition apPOL 180' (DRC-1, concentration 80): 71.4519% | % inhibition Apo pol 5' (DRC-2, concentration 2.5): 6% | % inhibition Apo pol 5' (DRC-2, concentration 5): 12% | % inhibition Apo pol 5' (DRC-2, concentration 10): 27% | % inhibition Apo pol 5' (DRC-2, concentration 20): 47% | % inhibition Apo pol 5' (DRC-2, concentration 40): 57% | % inhibition Apo pol 5' (DRC-2, concentration 80): 58% | % inhibition Apol 40' (DRC-2, concentration 2.5): 8% | % inhibition Apol 40' (DRC-2, concentration 5): 15% | % inhibition Apol 40' (DRC-2, concentration 10): 34% | % inhibition Apol 40' (DRC-2, concentration 20): 59% | % inhibition Apol 40' (DRC-2, concentration 40): 69% | % inhibition Apol 40' (DRC-2, concentration 80): 72% | % inhibition ApPOL 90' (DRC-2, concentration 2.5): 4.34% | % inhibition ApPOL 90' (DRC-2, concentration 5): 14% | % inhibition ApPOL 90' (DRC-2, concentration 10): 32% | % inhibition ApPOL 90' (DRC-2, concentration 20): 59% | % inhibition ApPOL 90' (DRC-2, concentration 40): 71% | % inhibition ApPOL 90' (DRC-2, concentration 80): 74% | % inhibition apPOL 180' (DRC-2, concentration 2.5): -0.774% | % inhibition apPOL 180' (DRC-2, concentration 5): 4.73% | % inhibition apPOL 180' (DRC-2, concentration 10): 22% | % inhibition apPOL 180' (DRC-2, concentration 20): 52% | % inhibition apPOL 180' (DRC-2, concentration 40): 67% | % inhibition apPOL 180' (DRC-2, concentration 80): 74% | DNA Pol (primary screen value, DNA Pol): 81

From publication PMC9090415, “Discovery of small molecule inhibitors of Plasmodium falciparum apicoplast DNA polymerase” (Journal of Enzyme Inhibition and Medicinal Chemistry, 2022)
